From ChEMBL document CHEMBL5346964, “Discovery of LNP1892: A Precision Calcimimetic for the Treatment of Secondary Hyperparathyroidism” (J Med Chem, 2023)

Tests used:
CYP2D6 = CYP2D6 (Homo sapiens, UniProt P10635); assay: Inhibition of CYP2D6 in human liver microsomes at 1 uM preincubated for 5 mins followed by NADPH addition by LC-MS/MS analysis relative to control; format: ADME, Microsome
[1] = Microsomal stability in human liver microsomes assessed as parent compound remaining at 1 uM measured upto 30 mins in presence of NADPH by LC-MS/MS analysis; format: ADME, Microsome; conditions: liver microsomes, read-out: Stability
[2] = Cmax in Sprague-Dawley rat at 1 mg/kg, iv measured upto 24 hrs by LC-MS/MS analysis; format: ADME, organism-based; design: dose 1 mg/kg, time < 24 hrs, route iv; conditions: in vivo
[3] = AUClast in Sprague-Dawley rat at 10 mg/kg, po administered as suspension measured upto 24 hrs by LC-MS/MS analysis; format: ADME, organism-based; design: dose 10 mg/kg, time < 24 hrs, route po; conditions: in vivo
[4] = AUClast in Sprague-Dawley rat at 10 mg/kg, po administered as solution measured upto 24 hrs by LC-MS/MS analysis; format: ADME, organism-based; design: dose 10 mg/kg, time < 24 hrs, route po; conditions: in vivo
[5] = Oral bioavailability in Sprague-Dawley rat at 10 mg/kg administered as solution measured upto 24 hrs by LC-MS/MS analysis; format: ADME, organism-based; conditions: in vivo
[6] = Effect on parathyroid hormone in overnight fasted Sprague-Dawley rat assessed as reduction in plasma PTH level at 3 mg/kg, po measured after 6 hrs of post treatment by sandwich ELISA analysis; format: functional; design: scale not given: the % may be the effect or the level left
[7] = Effect on parathyroid hormone in overnight fasted Sprague-Dawley rat assessed as reduction in plasma PTH level at 3 mg/kg, po measured after 0.5 hrs of post treatment by sandwich ELISA analysis; format: functional; design: scale not given: the % may be the effect or the level left
Rattus norvegicus [8] = assay: Effect on parathyroid hormone in po dosed overnight fasted Sprague-Dawley rat assessed as reduction in plasma PTH level measured after 0.5 to 6 hrs of post treatment by sandwich ELISA analysis; format: functional, organism-based; conditions: dose 3-30 mg/kg, time 0.5-6 hrs
[9] = Effect on parathyroid hormone in overnight fasted adenine diet-induced chronic kidney disease Wistar rat model plasma assessed as reduction in PTH level at 1 mg/kg, po measured after 1 hrs of post treatment by sandwich ELISA analysis; format: functional; design: scale not given: the % may be the effect or the level left
Rattus norvegicus [10] = assay: Acute effect on parathyroid hormone in overnight fasted adenine diet-induced chronic kidney disease Wistar rat model assessed as reduction in plasma PTH level at 3 mg/kg, po measured after 2 hrs of post treatment by sandwich ELISA analysis; format: functional; design: scale not given: the % may be the effect or the level left
[11] = Tmax in Sprague-Dawley rat at 30 mg/kg; format: ADME, organism-based; conditions: in vivo
[12] = Cmax in Sprague-Dawley rat at 30 mg/kg; format: ADME, organism-based; design: dose 30 mg/kg; conditions: in vivo
[13] = Tmax in Sprague-Dawley rat at 100 mg/kg; format: ADME, organism-based; conditions: in vivo
[14] = Cmax in Sprague-Dawley rat at 100 mg/kg; format: ADME, organism-based; design: dose 100 mg/kg; conditions: in vivo
[15] = Metabolic stability in mouse liver cytosol measured upto 60 mins by LC-MS/MS method; format: ADME, subcellular; conditions: read-out: Stability
[16] = Metabolic stability in rat liver cytosol measured upto 60 mins by LC-MS/MS method; format: ADME, subcellular; conditions: read-out: Stability
[17] = Stability in monkey plasma measured up to 4 hrs by LC-MS/MS method; format: ADME, cell-free, Macaca mulatta; conditions: rhesus monkey, read-out: Stability
[18] = Protein binding in mouse plasma incubated for 16 hrs under shaking condition by rapid equilibrium dialysis based LC-MS/MS method; format: ADME, cell-free; conditions: read-out: PPB
[19] = Protein binding in dog plasma incubated for 16 hrs under shaking condition by rapid equilibrium dialysis based LC-MS/MS method; format: ADME, cell-free, Canis lupus familiaris; conditions: read-out: PPB
[20] = Stability in human liver microsomes assessed as parent compound remaining measured after 60 mins in presence of NADPH by LC-MS/MS analysis; format: ADME, Microsome; conditions: read-out: Stability
[21] = Kinetic solubility of compound upto 500 uM in 0.1N NaOH measured after 16 hrs under shaking condition by UV-visible method; format: physicochemical; conditions: read-out: Kinetic_solubility
[22] = Kinetic solubility of compound upto 500 uM at pH 2 measured after 16 hrs under shaking condition by UV-visible method; format: physicochemical; conditions: buffer, read-out: Kinetic_solubility
[23] = Kinetic solubility of compound in FeSSIF upto 500 uM measured after 16 hrs under shaking condition by UV-visible method; format: physicochemical; conditions: read-out: Kinetic_solubility
[24] = Kinetic solubility of compound in water upto 500 uM measured after 16 hrs under shaking condition by UV-visible method; format: physicochemical; conditions: read-out: Kinetic_solubility
[25] = Kinetic solubility of compound in 20% HP-beta-CD upto 500 uM measured after 16 hrs under shaking condition by UV-visible method; format: physicochemical; conditions: read-out: Kinetic_solubility
[26] = Kinetic solubility of compound in 0.1N HCL upto 500 uM measured after 16 hrs under shaking condition by UV-visible method; format: physicochemical; conditions: read-out: Kinetic_solubility
[27] = Kinetic solubility of compound upto 500 uM at pH 7.4 measured after 16 hrs under shaking condition by UV-visible method; format: physicochemical; conditions: buffer, read-out: Kinetic_solubility
[28] = Chemical stability of the compound at pH 7.4 measured after 0.5 to 4 hrs; format: physicochemical; conditions: buffer, time 0.5-4 hrs
[29] = Chemical stability of the compound in 0.1N NaOH measured after 0.5 to 4 hrs; format: physicochemical; conditions: time 0.5-4 hrs
[30] = Chemical stability of the compound in FaSSIF measured after 0.5 to 4 hrs; format: physicochemical; conditions: simulated gi fluid; time 0.5-4 hrs
[31] = Chemical stability of the compound in SIF measured after 0.5 to 4 hrs; format: physicochemical; conditions: simulated gi fluid; time 0.5-4 hrs
[32] = Oral bioavailability in BALB/c mouse at 10 mg/kg measured upto 24 hrs by LC/MS-MS analysis; format: ADME, organism-based; conditions: in vivo
[33] = Volume of distribution at steady state in Sprague-Dawley rat at 1 mg/kg, iv measured upto 24 hrs by LC/MS-MS analysis; format: ADME, organism-based; conditions: in vivo, read-out: Vdss
[34] = Tmax in cynomolgus monkey at 5 mg/kg, po measured upto 24 hrs by LC/MS-MS analysis; format: ADME, organism-based, Macaca fascicularis; conditions: in vivo
[35] = Cmax in Sprague-Dawley rat at 10 mg/kg, po measured upto 24 hrs by LC/MS-MS analysis; format: ADME, organism-based; design: dose 10 mg/kg, time < 24 hrs, route po; conditions: in vivo
[36] = Cmax in Beagle dog at 5 mg/kg, po measured upto 24 hrs by LC/MS-MS analysis; format: ADME, organism-based, Canis lupus familiaris; design: dose 5 mg/kg, time < 24 hrs, route po; conditions: in vivo
[37] = Ratio of drug concentration in blood to plasma in rat; format: ADME, cell-free
[38] = Cmax in rat at 50 mg/kg per day, po via gavage administered for 2 weeks; format: ADME, organism-based; design: dose 50 mg/kg, time 2 weeks, route po; conditions: in vivo
[39] = AUC(0 to t) in rat at 25 mg/kg per day, po via gavage administered for 13 weeks; format: ADME, organism-based; design: dose 25 mg/kg, time 13 weeks, route po; conditions: in vivo
[40] = Cmax in mouse at 50 mg/kg per day, po via gavage administered for 13 weeks; format: ADME, organism-based; design: time 13 weeks, dose 50 mg/kg, route po; conditions: in vivo
[41] = AUC in mouse at 50 mg/kg per day, po via gavage administered for 13 weeks; format: ADME, organism-based; design: dose 50 mg/kg, time 13 weeks, route po; conditions: in vivo
[42] = Toxicity in rat assessed as NOAEL; conditions: in vivo
[43] = Toxicity in mouse assessed as NOAEL; conditions: in vivo
[44] = Plasma protein binding in human; format: ADME; conditions: read-out: PPB
[45] = Genotoxicity in Salmonella typhimurium by Ames test; format: toxicity; conditions: salmonella enterica subsp. enterica serovar typhimurium
[46] = biological target: Mu-type opioid receptor (Homo sapiens) (UniProt P35372); assay: Inhibition of human recombinant MOP receptor at 10 uM relative to control
[47] = biological target: Delta-type opioid receptor (Homo sapiens) (UniProt P41143); assay: Inhibition of human recombinant DOP receptor at 10 uM relative to control
Delta-type opioid receptor (Homo sapiens), sequence (P41143 whole entry): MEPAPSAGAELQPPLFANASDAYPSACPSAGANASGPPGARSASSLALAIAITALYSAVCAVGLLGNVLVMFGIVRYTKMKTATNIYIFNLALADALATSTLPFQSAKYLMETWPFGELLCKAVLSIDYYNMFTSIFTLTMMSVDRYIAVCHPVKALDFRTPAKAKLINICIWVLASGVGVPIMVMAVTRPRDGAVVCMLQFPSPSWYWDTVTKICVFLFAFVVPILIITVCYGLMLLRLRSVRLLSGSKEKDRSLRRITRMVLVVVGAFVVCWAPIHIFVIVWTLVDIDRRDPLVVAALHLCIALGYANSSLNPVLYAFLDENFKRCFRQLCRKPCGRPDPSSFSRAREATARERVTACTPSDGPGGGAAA

CYP2D6, sequence (P10635 whole entry): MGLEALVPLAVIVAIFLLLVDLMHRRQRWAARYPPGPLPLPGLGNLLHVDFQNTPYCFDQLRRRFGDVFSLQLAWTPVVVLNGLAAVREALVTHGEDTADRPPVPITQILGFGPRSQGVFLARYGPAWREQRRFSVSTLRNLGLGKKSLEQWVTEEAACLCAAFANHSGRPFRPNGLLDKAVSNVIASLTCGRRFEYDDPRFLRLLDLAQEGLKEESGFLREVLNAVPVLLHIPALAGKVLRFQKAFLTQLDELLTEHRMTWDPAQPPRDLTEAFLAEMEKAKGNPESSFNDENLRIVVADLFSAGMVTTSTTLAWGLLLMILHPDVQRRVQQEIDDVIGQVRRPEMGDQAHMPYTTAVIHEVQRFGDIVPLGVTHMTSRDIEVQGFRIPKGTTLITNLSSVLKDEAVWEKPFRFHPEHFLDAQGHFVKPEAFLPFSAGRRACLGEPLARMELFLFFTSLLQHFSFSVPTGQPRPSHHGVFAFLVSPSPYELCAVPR
Mu-type opioid receptor (Homo sapiens), sequence (P35372 whole entry): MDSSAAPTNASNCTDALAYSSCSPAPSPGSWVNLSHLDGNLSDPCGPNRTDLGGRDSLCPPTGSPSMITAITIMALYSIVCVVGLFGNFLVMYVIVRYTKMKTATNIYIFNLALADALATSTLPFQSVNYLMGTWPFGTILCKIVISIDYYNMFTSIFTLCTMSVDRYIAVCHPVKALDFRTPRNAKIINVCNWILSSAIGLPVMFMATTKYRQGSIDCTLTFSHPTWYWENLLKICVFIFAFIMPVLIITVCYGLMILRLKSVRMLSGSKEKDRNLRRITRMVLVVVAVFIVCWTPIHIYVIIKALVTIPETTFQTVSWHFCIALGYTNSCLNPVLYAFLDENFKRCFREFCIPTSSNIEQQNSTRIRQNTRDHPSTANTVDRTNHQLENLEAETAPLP

Cc1ccc([C@@H]2C[C@H](CN[C@H](C)c3cccc4ccccc34)Oc3ccccc32)cc1C(=O)O.Cl
inhibition at 1 µM (CYP2D6): 4%
remaining at 0.5 h, 1 µM [1]: 73%
Cmax [2]: 2 µM
AUC(0-t) at 24 h [3]: 23 µM·h
AUC(0-t) at 24 h [4]: 71 µM·h
bioavailability [5]: 99%
Activity [6]: 18%
Activity [7]: 100%
Activity (Rattus norvegicus [8]): Dose-Dependent Effect
Activity [9]: 95%
Activity (Rattus norvegicus [10]): 96%
Tmax [11]: 0.5 h
Cmax [12]: 24 µM
Tmax [13]: 1 h
Cmax [14]: 53 µM
remaining at 1 h [15]: > 80%
remaining at 1 h [16]: > 80%
remaining at 4 h [17]: > 80%
fraction unbound at 16 h [18]: < 0.01
fraction unbound at 16 h [19]: < 0.01
remaining at 1 h [20]: ~30%
solubility kinetic at 16 h, 500 µM [21]: > 300 µM
solubility kinetic at 16 h, 500 µM [22]: > 300 µM
solubility kinetic at 16 h, 500 µM [23]: > 300 µM
solubility kinetic at 16 h, 500 µM [24]: > 300 µM
solubility kinetic at 16 h, 500 µM [25]: > 200 µM
solubility kinetic at 16 h, 500 µM [26]: > 200 µM
solubility kinetic at 16 h, 500 µM [27]: > 200 µM
Stability [28]: Stable
Stability [29]: Stable
Stability [30]: Stable
Stability [31]: Stable
bioavailability [32]: 100%
Vd [33]: 1 L/kg
Tmax [34]: 1.7 h
Cmax [35]: 14 µM
Cmax [36]: 11 µM
blood plasma ratio [37]: 0.64
Cmax [38]: 7170 ng/mL
AUC(0-t) at 2184 h [39]: 98.9 µg·h/mL
Cmax [40]: 34800 ng/mL
AUC at 2184 h [41]: 321 µg·h/mL
NOAEL [42]: 25 mg/kg/day
NOAEL [43]: 50 mg/kg/day
fraction unbound [44]: < 0.01
Activity [45]: Non-Toxic
inhibition [46]: > 50%
inhibition [47]: > 50%
